The results in this text go back to ChEMBL document CHEMBL1123884, “Preparation and antileukemic screening of some new 6'-deoxyhexopyranosyladenine nucleosides” (J Med Chem, 1987).

For test [1], the system named is L1210. Put plainly: Antileukemic activity against L1210 cells in culture at a concentration of 10e-4 M; Active. Type of test: functional, cell-based, Mus musculus.
The test system of test [2] is L1210. Put plainly: Antileukemic activity against L1210 cells in culture at a concentration of 5 X 10e-4 M; extremely weak. Type of test: functional, cell-based. To be noted: Mus musculus.
Test [3] deals with L1210. Put plainly: Antileukemic activity against L1210 cells in culture at a concentration of 10e-4 M; Inactive. Type of test: functional, cell-based, Mus musculus.

Consider `C[C@H]1O[C@@H](n2cnc3c(N)ncnc32)[C@H](O)[C@@H](O)[C@H]1O`, for which, in the test on L1210 [1], the IC50 result is listed as “Active”.
In the case of `Nc1ncnc2c1ncn2C1OCC(O)C(O)C1O` (stereo unspecified), the inhibition result in the test on L1210 [2] is recorded as “Extremely weak”.
For the compound `C[C@@H]1O[C@@](CO)(n2cnc3c(N)ncnc32)[C@@H](O)[C@@H]1O`, the IC50 result in the test with L1210 [3] is reported as “Not Active”.
Regarding `C[C@@H]1O[C@@H](n2cnc3c(N)ncnc32)[C@H](O)[C@H](O)[C@@H]1O`, the IC50 result with L1210 [3] is listed as “Not Active”.
On to `Nc1ncnc2c1ncn2C1OC(CO)C(O)C(O)C1O` (stereo unspecified), for which the IC50 entry in the test on L1210 [3] is “Not Active”.
For `C[C@H]1O[C@@H](n2cnc3c(N)ncnc32)[C@H](O)[C@@H](O)[C@@H]1O`, the IC50 entry in the test on L1210 [3] is given as “Not Active”.
